Laboratory results taken from PubChem BioAssay AID1259407 (Chemical Carcinogenesis Research Information System (CCRIS), 2018).
Activity calls are given as the source filed them. The rule behind the calls is not given here.

System: CCRIS mutagenicity, Ames/micronucleus/aberration tests
Test: CCRIS mutagenicity studies
[1] = Test System: AMES SALMONELLA TYPHIMURIUM, Strain/Indicator: TA98, Metabolic Activation: NONE, Method: PREINCUBATION
[2] = Test System: AMES SALMONELLA TYPHIMURIUM, Strain/Indicator: TA98, Metabolic Activation: NONE, Method: STANDARD PLATE
[3] = Test System: AMES SALMONELLA TYPHIMURIUM, Strain/Indicator: TA98, Metabolic Activation: RAT, LIVER, S-9, AROCLOR 1254, Method: STANDARD PLATE
[4] = Test System: AMES SALMONELLA TYPHIMURIUM, Strain/Indicator: TA100, Metabolic Activation: NONE, Method: PREINCUBATION
[5] = Test System: AMES SALMONELLA TYPHIMURIUM, Strain/Indicator: TA100, Metabolic Activation: NONE, Method: STANDARD PLATE
[6] = Test System: AMES SALMONELLA TYPHIMURIUM, Strain/Indicator: TA100, Metabolic Activation: RAT, LIVER, S-9, AROCLOR 1254, Method: STANDARD PLATE
[7] = Test System: AMES SALMONELLA TYPHIMURIUM, Strain/Indicator: TA1535, Metabolic Activation: NONE, Method: STANDARD PLATE
[8] = Test System: AMES SALMONELLA TYPHIMURIUM, Strain/Indicator: TA1535, Metabolic Activation: RAT, LIVER, S-9, AROCLOR 1254, Method: STANDARD PLATE
[9] = Test System: AMES SALMONELLA TYPHIMURIUM, Strain/Indicator: TA1537, Metabolic Activation: NONE, Method: STANDARD PLATE
[10] = Test System: AMES SALMONELLA TYPHIMURIUM, Strain/Indicator: TA1537, Metabolic Activation: RAT, LIVER, S-9, AROCLOR 1254, Method: STANDARD PLATE

For `O=C(CCCN1CCC(O)(c2ccc(Cl)cc2)CC1)c1ccc(F)cc1`, the mutagenic call (End Point: IN VITRO CHROMOSOMAL ABERRATIONS, Test System: HUMAN LYMPHOCYTES, Metabolic Activation: NONE) was “inactive; negative”, the mutagenic call (End Point: IN VIVO CHROMOSOMAL ABERRATIONS, Test System: LYMPHOCYTES, Species: HUMAN, Strain/Sex: MALE, Route: ORAL) was “inactive; negative” and the mutagenic call (Test System: AMES SALMONELLA TYPHIMURIUM, Strain/Indicator: TA98, Metabolic Activation: MOUSE, LIVER, S-9, AROCLOR 1254, Method: STANDARD PLATE) was “inactive; negative”. The mutagenic call (Test System: AMES SALMONELLA TYPHIMURIUM, Strain/Indicator: TA98, Metabolic Activation: MOUSE, LIVER, S-9, Method: STANDARD PLATE) was “inactive; negative”, the mutagenic call [1] was “inactive; negative” and the mutagenic call [2] was “inactive; negative”. The mutagenic call (Test System: AMES SALMONELLA TYPHIMURIUM, Strain/Indicator: TA98, Metabolic Activation: RAT, LIVER, S-9, AROCLOR 1254, Method: PREINCUBATION) was “inactive; negative”, the mutagenic call [3] was “inactive; negative” and the mutagenic call (Test System: AMES SALMONELLA TYPHIMURIUM, Strain/Indicator: TA100, Metabolic Activation: MOUSE, LIVER, S-9, AROCLOR 1254, Method: STANDARD PLATE) was “inactive; negative”. The mutagenic call (Test System: AMES SALMONELLA TYPHIMURIUM, Strain/Indicator: TA100, Metabolic Activation: MOUSE, LIVER, S-9, Method: STANDARD PLATE) was “inactive; negative”, the mutagenic call [4] was “inactive; negative” and the mutagenic call [5] was “inactive; negative”. The mutagenic call (Test System: AMES SALMONELLA TYPHIMURIUM, Strain/Indicator: TA100, Metabolic Activation: RAT, LIVER, S-9, AROCLOR 1254, Method: PREINCUBATION) was “inactive; negative”, the mutagenic call [6] was “inactive; negative” and the mutagenic call (Test System: AMES SALMONELLA TYPHIMURIUM, Strain/Indicator: TA1530, Metabolic Activation: MOUSE, LIVER, S-9, AROCLOR 1254, Method: STANDARD PLATE) was “inactive; negative”. For the same compound, the mutagenic call (Test System: AMES SALMONELLA TYPHIMURIUM, Strain/Indicator: TA1530, Metabolic Activation: MOUSE, LIVER, S-9, Method: STANDARD PLATE) was “inactive; negative”, the mutagenic call (Test System: AMES SALMONELLA TYPHIMURIUM, Strain/Indicator: TA1530, Metabolic Activation: NONE, Method: STANDARD PLATE) was “inactive; negative” and the mutagenic call (Test System: AMES SALMONELLA TYPHIMURIUM, Strain/Indicator: TA1530, Metabolic Activation: RAT, LIVER, S-9, AROCLOR 1254, Method: STANDARD PLATE) was “inactive; negative”. The mutagenic call (Test System: AMES SALMONELLA TYPHIMURIUM, Strain/Indicator: TA1535, Metabolic Activation: MOUSE, LIVER, S-9, AROCLOR 1254, Method: STANDARD PLATE) was “inactive; negative”, the mutagenic call (Test System: AMES SALMONELLA TYPHIMURIUM, Strain/Indicator: TA1535, Metabolic Activation: MOUSE, LIVER, S-9, Method: STANDARD PLATE) was “inactive; negative” and the mutagenic call [7] was “inactive; negative”. For the same compound, the mutagenic call [8] was “inactive; negative”, the mutagenic call [9] was “inactive; negative” and the mutagenic call [10] was “inactive; negative”. For the same compound, the mutagenic call (Test System: AMES SALMONELLA TYPHIMURIUM, Strain/Indicator: TA1538, Metabolic Activation: MOUSE, LIVER, S-9, AROCLOR 1254, Method: STANDARD PLATE) was “inactive; negative”, the mutagenic call (Test System: AMES SALMONELLA TYPHIMURIUM, Strain/Indicator: TA1538, Metabolic Activation: MOUSE, LIVER, S-9, Method: STANDARD PLATE) was “inactive; negative” and the mutagenic call (Test System: AMES SALMONELLA TYPHIMURIUM, Strain/Indicator: TA1538, Metabolic Activation: NONE, Method: STANDARD PLATE) was “inactive; negative”. For the same compound, the mutagenic call (Test System: AMES SALMONELLA TYPHIMURIUM, Strain/Indicator: TA1538, Metabolic Activation: RAT, LIVER, S-9, AROCLOR 1254, Method: STANDARD PLATE) was “inactive; negative”.

`O=C1C=CC(=O)C(c2ccccc2)=C1` was tested, and the mutagenic call [1] was “inactive; negative”, the mutagenic call (Test System: AMES SALMONELLA TYPHIMURIUM, Strain/Indicator: TA98, Metabolic Activation: RAT, LIVER, S-9, PHENOBARBITAL AND 5,6-BENZOFLAVONE, Method: PREINCUBATION) was “inactive; negative” and the mutagenic call [4] was “inactive; negative”. For the same compound, the mutagenic call (Test System: AMES SALMONELLA TYPHIMURIUM, Strain/Indicator: TA100, Metabolic Activation: RAT, LIVER, S-9, PHENOBARBITAL AND 5,6-BENZOFLAVONE, Method: PREINCUBATION) was “inactive; negative”, the mutagenic call (Test System: AMES SALMONELLA TYPHIMURIUM, Strain/Indicator: TA102, Metabolic Activation: NONE, Method: PREINCUBATION) was “inactive; negative” and the mutagenic call (Test System: AMES SALMONELLA TYPHIMURIUM, Strain/Indicator: TA102, Metabolic Activation: RAT, LIVER, S-9, PHENOBARBITAL AND 5,6-BENZOFLAVONE, Method: PREINCUBATION) was “inactive; negative”. For the same compound, the mutagenic call (Test System: AMES SALMONELLA TYPHIMURIUM, Strain/Indicator: TA104, Metabolic Activation: NONE, Method: PREINCUBATION) was “inactive; negative”, the mutagenic call (Test System: AMES SALMONELLA TYPHIMURIUM, Strain/Indicator: TA104, Metabolic Activation: RAT, LIVER, S-9, PHENOBARBITAL AND 5,6-BENZOFLAVONE, Method: PREINCUBATION) was “inactive; negative” and the mutagenic call (Test System: AMES SALMONELLA TYPHIMURIUM, Strain/Indicator: TA2637, Metabolic Activation: NONE, Method: PREINCUBATION) was “inactive; negative”. For the same compound, the mutagenic call (Test System: AMES SALMONELLA TYPHIMURIUM, Strain/Indicator: TA2637, Metabolic Activation: RAT, LIVER, S-9, PHENOBARBITAL AND 5,6-BENZOFLAVONE, Method: PREINCUBATION) was “inactive; negative” and the mutagenic call (Test System: CHINESE HAMSTER V-79, Strain/Indicator: V-79 (HGPRT)/6-THIOGUANINE, Metabolic Activation: NONE) was “inactive; negative”.

For `COC(=O)C(/C=C(C)/C=C(C)/C=C/C=C(\C)C(=O)[C@]12O[C@H]1[C@@](O)(CCO)NC2=O)=C/CO`, the mutagenic call [4] was “active; positive”.

`NC(=O)N(c1ccccc1)c1ccc(C(=O)O)cc1` was tested, and the mutagenic call (Test System: AMES SALMONELLA TYPHIMURIUM, Strain/Indicator: TA98, Metabolic Activation: MAIZE SEEDLING, S-14, Method: PREINCUBATION) was “active; positive”, the mutagenic call (Test System: AMES SALMONELLA TYPHIMURIUM, Strain/Indicator: TA98, Metabolic Activation: MOUSE, LIVER, S-9, Method: PREINCUBATION) was “inactive; negative” and the mutagenic call [1] was “inactive; negative”. For the same compound, the mutagenic call (Test System: AMES SALMONELLA TYPHIMURIUM, Strain/Indicator: TA100, Metabolic Activation: MAIZE SEEDLING, S-14, Method: PREINCUBATION) was “inactive; negative”, the mutagenic call (Test System: AMES SALMONELLA TYPHIMURIUM, Strain/Indicator: TA100, Metabolic Activation: MOUSE, LIVER, S-9, Method: PREINCUBATION) was “inactive; negative” and the mutagenic call [4] was “inactive; negative”. For the same compound, the mutagenic call (Test System: AMES SALMONELLA TYPHIMURIUM, Strain/Indicator: TA1535, Metabolic Activation: NONE, Method: PREINCUBATION) was “inactive; negative”, the mutagenic call (Test System: AMES SALMONELLA TYPHIMURIUM, Strain/Indicator: TA1537, Metabolic Activation: NONE, Method: PREINCUBATION) was “inactive; negative” and the mutagenic call (Test System: AMES SALMONELLA TYPHIMURIUM, Strain/Indicator: TA1538, Metabolic Activation: NONE, Method: PREINCUBATION) was “inactive; negative”.

`O=C(O)c1cc(I)cc2cccnc12` was tested, and the mutagenic call [2] was “inactive; negative”, the mutagenic call [3] was “inactive; negative” and the mutagenic call [5] was “inactive; negative”. For the same compound, the mutagenic call [6] was “inactive; negative”, the mutagenic call [7] was “inactive; negative” and the mutagenic call [8] was “inactive; negative”. The mutagenic call [9] was “inactive; negative” and the mutagenic call [10] was “inactive; negative”.

In the case of `C[C@]12CCc3c(ccc4cc(O)ccc34)[C@@H]1CCC2=O`, the mutagenic call (Test System: UDS RAT HEPATOCYTES, Strain/Indicator: THY INCORP (18-20 HR), Metabolic Activation: NONE, Method: LIQUID SCINTILLATION COUNTING) is reported as “inactive; negative”.
